Measured values as given in patent publication US20100222416A1, “Diagnostic Marker and Therapeutic Target for Cancer” (priority 2005, published 2010).

Assays:
Assay type in all cases: cell-based, human
nm23H1-A [1] = experiment: nm23H1-A mRNA expression in colon cancer cells treated with different anticancer agents (RT-PCR and real time PCR); conditions: HT29 cell line, 24 hrs
nm23H1-B gene [2] = experiment: nm23H1-B mRNA expression in colon cancer cells treated with different anticancer agents (RT-PCR and real time PCR); conditions: HT29 cell line, 24 hrs
Procedure: To study the effect of other anticancer agents on expression of nm23H1-B gene, we took representative of different classes of anticancer agents like alkylating agents (cisplatin), topoisomerase I and II inhibitors (CPT-11), RNA/DNA antimetabolites (5-FU) and antimitotic agents (paclitaxel).
Cells were treated with different anticancer agents for 24 hrs and RNA was isolated.

nm23H1-B protein = experiment: Western blot of nuclear and cytosolic fractions of 5FU treated Colo 205 cells; conditions: 100 μM, 24 hours
Procedure: Intracellular localization of both nm23H1-A & nm23H1-B gene was evaluated by Western Blot analysis. Colo 205 cells were treated with 100 μM 5FU for 24 hours and cells were removed from their dishes by gentle scraping. Cells were washed with cold PBS and then resuspended in cold nuclei extraction buffer (320 mM sucrose, 5 mM Mgcl2, 10 mM HEPES, 1% Triton X-100 at pH 7.4) at a ratio of 1 ml per million cells. Nuclear fraction was then pelleted by centrifugation at 2000×g and washed twice with nuclei washing buffer (same as nuclei extraction buffer without Triton X-100). Supernatant was collected separately as a cytosolic fraction. Protein was estimated in both nuclear and cytosolic fraction and equal amount of protein was loaded on a 15% SDS PAGE followed by electrobloting on to a polyvinylidene difluoride membrane. Transferred proteins were incubated with blocking buffer containing 3% bovine serum albumin in phosphate-buffered saline. Polyclonal antibody specific for nm23 protein (Santa Cruz) and peroxidase-labeled goat anti-rabbit IgG (Sigma) were used to probe the target gene.

[3] = test system: nm23H1 protein (19.6 kDa form coded by nm23H1-B gene); experiment: Two-dimensional PAGE / MALDI of untreated and 5FU treated Colo 205 cell lysate, differentially expressed proteins; conditions: colo 205 cells, 100 μM, 24 hrs, 2D PAGE spot intensity
Procedure: Two-dimensional gel electrophoresis was carried out to identify differentially expressed proteins on treatment with anticancer agents specifically, colon/colorectal cancer cell line (NCCS, Pune, India) was treated with 5-FU (Fivoflu, Dabur Pharma Ltd, India). Untreated cells (cells, not treated with 5FU) were taken as control.
100 μM of 5-FU was added to colo 205 cells seeded at 80% confluence and were harvested after 24 hrs of treatment. Cells were lysed in lysis buffer (Urea 0.54 g/ml, CHAPS 40 mg/ml and DTT 20 mg/ml) and the clear supernatant of treated and untreated (not treated with 5-FU) cell lysate were subjected to isoelectric focusing (Bio-Rad, Protean IEF Cell) on separate 17 cm IPG strips of 4-7 pH range.
Second dimension electrophoresis was subsequently carried out on a 12% SDS-PAGE (Protean II XL electrophoresis system, Bio-Rad). The gel was silver stained for visualization of the protein spots and a digitized image of the 2D gel was generated, using GS 800 Densitometer (Bio-Rad). […]
The protein spots showing more than 2-fold change in intensity in 5-FU treated and untreated samples were further analyzed. […] The dried samples were reconstituted in 10 μl of 0.1% (v/v of 50% acetonitrile) trifluoroacetic acid and peptides were detected on a Matrix-Assisted Laser Desorption/Ionisation-Time of Flight Mass Spectrometry (MALDI-TOF MS) (Voyager-DE STR). […]

nm23H1-B gene [4] = experiment: RT-PCR / real time PCR of nm23H1-B mRNA in 5-FU treated colon cancer cell lines (Colo 205, HT29)
Procedure: (§1) The over expression of nm23H1-B was checked at RNA level by RT-PCR. Colo 205 cells were seeded in 6 well plates at 80% confluence and treated with 100 μM of 5FU for 24 hrs. Subsequently, 1 ml of Trizol reagent (Invitrogen) was added to the cells after a phosphate buffer saline washing for extraction of RNA. The total RNA was extracted using chloroform-isopropyl alcohol method. Finally, the pellet was washed with 70% ethanol and dried on a speed-vac. Control RNA from untreated cells was also extracted in a similar fashion (cells, not treated with 5FU.
(§2) RT-PCR was carried out using one step RT-PCR Kit (Qiagen) according to manufacturer's instructions. 1 μg of RNA was taken and mixed with specific primers of nm23H1A & nm23H1B respectively (Table 1, SEQ ID: 3,4,5). β2-micro globulin (primer sequence, Table 1, SEQ ID: 6,7) was used as a control. The PCR amplified samples were then analyzed on a 1.5% agarose gel.

nm23H1-A [5] = experiment: RT-PCR / real time PCR of nm23H1-A mRNA in 5-FU treated colon cancer cell lines; conditions: Colo 205 cells, 100 μM, 24 hrs
Procedure: as §1, §2

CCc1c2c(nc3ccc(OC(=O)N4CCC(N5CCCCC5)CC4)cc13)-c1cc3c(c(=O)n1C2)COC(=O)[C@]3(O)CC [CPT11, camptothecin-11]
mRNA levels of nm23H1-A (nm23H1-A [1]): Increase
mRNA levels of nm23H1-B (nm23H1-B gene [2]): Increase

N.N.[Cl][Pt][Cl] [cisplatin]
mRNA levels of nm23H1-A (nm23H1-A [1]): Increase
mRNA levels of nm23H1-B (nm23H1-B gene [2]): Increase

CC(=O)O[C@H]1C(=O)[C@@]2(C)[C@H]([C@H](OC(=O)c3ccccc3)[C@]3(O)C[C@H](OC(=O)[C@H](O)[C@@H](NC(=O)c4ccccc4)c4ccccc4)C(C)=C1C3(C)C)[C@]1(OC(C)=O)CO[C@@H]1C[C@@H]2O [paclitaxel]
mRNA levels of nm23H1-A (nm23H1-A [1]): Increase
mRNA levels of nm23H1-B (nm23H1-B gene [2]): Increase

O=c1[nH]cc(F)c(=O)[nH]1 [5-FU]
nm23H1-B protein level (nm23H1-B protein): up-regulation
up regulation of nm23H1 protein in treated cells as compared to untreated [3]: more than 6 fold
mRNA levels of nm23H1-A (nm23H1-A [1]): Increase
change in nm23H1-B gene expression (RNA level) (nm23H1-B gene [4]; Colo 205 cells, 100 μM, 24 hrs, RT-PCR): up regulation
overexpression of nm23H1-B gene (nm23H1-B gene [4]; colon/colorectal cancer cells): about nine
mRNA levels of nm23H1-B (nm23H1-B gene [2]): Increase
change in nm23H1-A expression level (RNA level) (nm23H1-A [5]): insignificant change
